From US6828342B2, “Nitric esters and nitrate salts of specific drugs” (priority 1999, dated 2004)
Structures can show the parent of a compound that is named as a salt.

How the values were obtained:
[1] = tested on: cough strokes caused by citric acid aerosol; assay: Anti-tussive activity: cough strokes caused by citric acid aerosol in the guinea pig; assay type: in vivo; settings: 110 micromoles/Kg i.p.; for Antitussive potency compared with the corresponding hydrochlorides: result in words; for cough strokes (%): citric acid 7.5% aerosol, 30 minutes before aerosol, cough strokes over 10 minutes referred to control = 100%
Description: Anti-tussive Activity in the Guinea Pig of Dextromethorphan Hydrochloride, Dextromethorphan Nitrate, Dextrorphan Hydrochloride and Dextrorphan Nitrate
Guinea pigs (weight: 430+20) were treated as described by Braga et Al. Arzneim. Forsch./Drug Res. 43, 550, 1993.
In this pharmacological experiment 5 groups of 8 animals each were formed. One group was not treated and was the control group.
Each animal was placed in a cilindrical glass container having one tubing through each of the two circular flat surfaces. Said tubing were, respectively, for the aerosol inlet and outlet. The outlet tubing is connected to a polygraphic system.
The aerosol was formed from a solution 7.5% by weight of citric acid in water.
The air variation inside the glass container was registered before and after a cough stroke caused by the aerosol. One hour later Dextromethorphan hydrochloride, Dextromethorphan nitrate, Dextrorphan hydrochloride and dextrorphan nitrate were i.p. administered in a physiologic solution at a dose of 110 micromoles/Kg. 30 minutes after the injection the animals were treated with the aerosol. It was then registered the number of cough strokes for a time of 10 minutes. In the following Table III are reported the average response obtained from each treated group, referred to that of the control group, made 100%.

[2] = tested on: phenol red in the tracheal secretion; assay: Mucolitic activity in mice: phenol red in the tracheal secretion; assay type: in vivo
Description: Mucolitic Activity in Mice of Ambroxol Nitrate and Ambroxol Hydrochloride
Mucolitic activity in male mice was evaluated according to the Method of Engler and Zselenyi, J. Pharm. Methods 11, 151, 1984. By this method it is determined the quantity of phenol red in the tracheal secretion. The animals were previously administered i.p. at a dose of 500 mg/Kg with the dye dissolved in physiologic solution. 3 groups of mice (weight 18±2 g), of 10 animal each, were treated i.p. with the dye. One group was the control group. Each of the two treated groups received, ten minutes before the above injection, an i.p. injection of 264 micromoles/Kg of Ambroxol nitrate or Ambroxol hydrochloride, respectively. 30 minutes after the phenol red injection, the animals were sacrificed. The trachea was freed from the sorrounding tissues, dissected and washed for 30 minutes in 3 ml of physiologic solution. 0.1 ml of 1 M sodium hydroxyde were then added to the physiologic solution. The washings were centrifuged for 15 minutes at 3000 rpm. A spectrophotometric assay was performed on the supernatant in order to determine the concentration of phenol red in the physiologic solution. Mucolitic activity was determined as % variation of absorbance of the sample in the confront of that of the control group, assumed to be 100%.

[3] = tested on: histamine-induced bronchoconstriction; assay: Antihistaminic activity: experimental bronchoconstriction by histamine in the guinea pig; settings: result in words
[4] = tested on: bronchoconstrictive response induced by capsaicin; assay: Experimental bronchoconstriction induced by capsaicin in the guinea pig (tidal air variation, Konzett apparatus); assay type: in vivo; settings: 0.3 nmoles/min i.v., result in words
Description: Each groups consisted of eight animals. […] For a total 15 minutes, starting from 5 minutes before capsaicin injection to 10 minutes after) Salbutamol (0.3 nmoles/min), or the corresponding nitrate salt (0.3 nmoles/min) or only the carrier were administered by intravenous infusion were administered to each group. […] The heart frequency was determined by an electrocardiographic device, according to the usual methods.

heart frequency = assay: Heart frequency (tachycardia) by electrocardiographic device in the capsaicin bronchoconstriction study; assay type: in vivo; settings: guinea pig; 0.3 nmoles/min i.v. infusion; heart frequency as percent with respect to the control (carrier 188 ±7 beats per minute = 100); Nitrate Salt
Description: Each groups consisted of eight animals. […] For a total 15 minutes, starting from 5 minutes before capsaicin injection to 10 minutes after) Salbutamol (0.3 nmoles/min), or the corresponding nitrate salt (0.3 nmoles/min) or only the carrier were administered by intravenous infusion were administered to each group.
The heart frequency was determined by an electrocardiographic device, according to the usual methods.

With COc1ccc2c(c1)[C@@]13CCCC[C@H]1[C@@H](C2)N(C)CC3 [Dextromethorphan nitrate, Dextromethorphan Nitrate Salt] as the molecule, how does the “Antitussive potency compared with the corresponding hydrochlorides” value [1] read?
Its value is “more potent antitussive agents than the corresponding hydrochlorides”.

And the “cough strokes (%)” value ([1]; Nitrate Salt)?
Its value is 0%.

How did the “cough strokes (%)” value ([1]; hydrochloride) turn out when COc1ccc2c(c1)[C@@]13CCCC[C@H]1[C@@H](C2)N(C)CC3 [Dextromethorphan hydrochloride, reference compound] was run?
The value was 30%.

For CN1CC[C@]23CCCC[C@H]2[C@H]1Cc1ccc(O)cc13 [Dextrorphan hydrochloride, reference compound], which “cough strokes (%)” value ([1]; hydrochloride) is on record?
Its value is 40%.

How did the “Antitussive potency compared with the corresponding hydrochlorides” value [1] turn out when CN1CC[C@]23CCCC[C@H]2[C@H]1Cc1ccc(O)cc13 [Dextrorphan nitrate, Dextrorphan Nitrate Salt] was run?
Its value is “more potent antitussive agents than the corresponding hydrochlorides”.

What about the “cough strokes (%)” value ([1]; Nitrate Salt) of the same molecule?
Its value is 0%.

For Nc1c(Br)cc(Br)cc1CNC1CCC(O)CC1 (centres unmarked) [Ambroxol hydrochloride, reference compound], which “Mucolitic activity (%)” value ([2]; male mice, 264 micromoles/Kg i.p. ten minutes before phenol red 500 mg/Kg i.p., % variation of absorbance versus control group = 100%, hydrochloride) is on record?
The value was 30%.

Which “Mucolitic activity compared with the corresponding hydrochloride” value ([2]; mice, 264 micromoles/Kg i.p., result in words) does the source give for Nc1c(Br)cc(Br)cc1CNC1CCC(O)CC1 (centres unmarked) [Ambroxol nitrate, Ambroxol Nitrate Salt] here?
Its value is “higher than that of the corresponding hydrochloride”.

For O=C(O)COCCN1CCN(C(c2ccccc2)c2ccc(Cl)cc2)CC1 (centres unmarked) [Cetirizine nitrate, Cetirizine Nitrate Salt], which “Antihistamine activity compared with Cetirizine hydrochloride” value [3] is on record?
Its value is “improved antihistamine activity”.

CC(C)(C)NCC(O)c1ccc(O)c(CO)c1 (centres unmarked) [Salbutamol · HNO3, Salbutamol Nitrate Salt] was tested. Which “Inhibition of the bronchoconstrictive response induced by capsaicin, compared with Salbutamol” value [4] did it give?
Its value is “as effective as Salbutamol”.

And the “Tachycardia (%)” value (heart frequency)?
The value was 97%.
